In one data set the test system is KC mice. The experiment in a line: Vagotomized KC mice (KC+VxPP) treated with bethanechol in drinking water. It counts as in vivo, mouse. To be noted: for pancreatic tumor (PDAC) incidence: bethanechol 400 μg/ml in drinking water, at 20 weeks; for pancreatic CD44 expression: bethanechol vs KC+VxPP controls, immunostaining. The procedure:
Thus, KC mice that underwent vagotomy treated with or without Bethanechol, a broad muscarinic agonist, were compared. Bethanechol treatment (400 μg/ml) started immediately after receiving surgery and continued till 20 weeks.
(§1) K-Ras^+/LSL-G12D, p53^+/R172H, and Pdx-1-Cre mice were provided by Dr. Kenneth Olive (Columbia University). M1RKO mice were purchased from the Jackson Laboratory. KC mice and KPC mice were crossed with M1RKO mice. For several experiments, KC mice received pyloroplasty with or without vagotomy at 8 weeks and KC+VxPP mice were treated with or without bethanechol (400 μg/ml) after surgery immediately. They were sacrificed at 20 weeks. In addition, KPC mice were treated with gemcitabine biweekly and with or without bethanechol when the tumor size of 3-5 mm detected using ultrasound. They were sacrificed when the mice were moribund. For liver metastatic experiments, WT type C57/B6 mice received spleen injection and hemi-splenectomy. […] They were sacrificed when the mice were moribund.
Bethanechol treatment (400 μg/ml in drinking water) was started in KC mice at 8 weeks, immediately after the mice received surgery, and continued until 20 weeks of age.
(§2) LSL-Kras^+/LSL-G12D, LSL-Trp53^+/R172H, and Pdx1-Cre mice were bred by Dr. Kenneth P. Olive and co-workers. Chrm1KO mice (C57BL/6-Chrm1tm1 Stl/J, (M1RKO) mice^1 were purchased from the Jackson Laboratory. KC mice and KPC mice were crossed with M1RKO mice. In the vagotomy experiments, KC mice received pyloroplasty with or without vagotomy at 8 weeks, and some KC+VxPP mice were treated with bethanechol ([…] in drinking water) immediately after surgery and then sacrificed at 20 weeks. KPC mice in treatment studies were palpated weekly for tumors in the pancreas. Once a tumor was suspected, KPC mice were screened by VEVO 2100—Ultrasound Imaging System (FUJIFILM VisualSonics) for pancreatic cancer. KPC mice were treated with gemcitabine, given by i.p. injection 100 mg/kg biweekly, with or without bethanechol, when a tumor size of 3-5 mm was detected using ultrasound. Mice were sacrificed when the mice were moribund. NOD/SCID mice were implanted with Panc1 cells subcutaneously and sacrificed at 30 days after implantation. For liver metastatic experiments, WT type C57/B6 mice received a splenic injection of labeled Panc02 cells, followed by hemi-splenectomy. The mice were then divided into three groups. […] Mice were then sacrificed when moribund. At necropsy, hepatic metastases that could clearly be identified as tumor nodules on gross inspection were separated. All animal studies and procedures were approved by the IACUC committee at Columbia University. All mice were bred under specific pathogen free conditions. Comparisons were made with age- and sex-matched control animals.
5 μm paraffin embedded or PFA-fixed frozen sections were prepared for immunohistochemistry and immunofluorescence, respectively. For immunofluorescence, slides were washed with 1% Triton X-100 in PBS, rinsed and blocked for 30 min with 2% bovine serum albumin (BSA—Sigma-Aldrich). Primary antibodies and fluorophore-conjugated secondary antibodies were diluted in 2% BSA and incubated over night at 4° C. The following primary antibodies were used; Chrm1 (1:200 Santa Cruz), Ki67 (1:500 Abcam), p-EGFR (1:200 Abcam), and CD44 (1:200 BIO-RAD). For immunohistochemical staining, slides were deparaffinized in xylene and endogenous peroxidase was blocked by incubation with 3% hydrogen peroxide in methanol for visualization using the peroxidase reaction.

For a further data set, the system named is KPC mice. Put plainly: KPC mice with established PDAC treated with gemcitabine with or without bethanechol. The format is in vivo, mouse. To be noted: for overall survival (in words): KPC mice with established PDAC, bethanechol + GEM vs GEM alone.
Excerpt: Next, the role of cholinergic signaling in advanced pancreatic cancer was investigated using the genetically engineered KPC (K-Ras^+/LSL-G12D;p53^+/R172H;Pdx-1-Cre) mouse model, which develops ductal adenocarcinoma by 17-19 weeks (Olive et al., 2009, Hingorani et al., 2005).
as §1
Next, the role of cholinergic signaling in established PDAC was investigated using the KPC mouse model, which develops PDAC at a median age of 17-19 weeks^2, 29. KPC mice with pancreatic tumors that measured 3-5 mm in diameter on ultrasound were randomized to treatment with gemcitabine (GEM) alone, or GEM+bethanechol (FIG. 8I).
as §2
CD44, p-EGFR, p-PI3K, p-ERK, and Ki67 positive cells were quantified in at least five high power fields from at least 3 mice per group. Total cells per field were counted via morphometric analysis using ImageJ and the ratio of positive cells to total cell number calculated.

The conditions of data set [1]: cited from earlier work.
Data set [2] deals with human PDAC cell lines (MiaPaca2, Panc1). Put plainly: MTT assay, human PDAC cell lines. The format is cell-based. Background: Tetrazolium assays rely on reduction of a dye to a coloured formazan, in cell work by metabolically active cells.
Description: Cell proliferation in each cell line was assessed with a 3-(4,5-dimethylthiazol-2yl)-2,5-diphenyltetrazolium bromide (MTT) assay kit (Sigma) in accordance with the manufacturer's instructions. 3×10^3 cells were grown in 96-well plate to around ˜70% confluent, changed the 0.5% FBS medium, added the drugs respectively and incubated them for further 72 hrs incubation in a typical CO2 incubator (˜20% O2). Treated cells were rinsed twice with PBS, incubated in 10 ll MTT solution for 4 hr at 37° C., and 100 uL DMSO was added to each well. The absorbance of each well was measured at 570 nm using Tilter-Tech 96-well multiscanner (Becton Dickinson, Heidelberg, Germany). The relative number of viable cells compared with the number of cells without drug treatment was expressed as percent cell viability using the following formula:
Cell proliferation in each cell line was assessed with a 3-(4,5-dimethylthiazol-2yl)-2,5-diphenyltetrazolium bromide (MTT) assay kit (Sigma) in accordance with the manufacturer's instructions. 3×10^3 cells were grown in 96-well plate to ˜70% confluency, the media was changed to 0.5% FBS medium, the respective drugs were added, and they were incubated for an additional 72 hours in a CO2 incubator (˜5% CO2). Treated cells were rinsed twice with PBS, incubated in 10 ul MTT (5 mg/ml PBS) solution for 4 hours at 37° C., and 100 uL DMSO was then added to each well. The absorbance of each well was measured at 570 nm using a Tilter-Tech 96-well multiscanner (Becton Dickinson, Heidelberg, Germany). The relative number of viable cells compared with the number of cells without drug treatment was expressed as percent cell viability using the following formula: cell viability (%)=A570 of treated cells/A570 of untreated cells.
In data set [3] the test system is CHRM1. Put plainly: qRT-PCR of muscarinic receptor expression, human PDAC cell lines. To be noted: human PDAC cell lines (MiaPaca2 and Panc1), compared to control. The format is cell-based.
Data set [4] deals with Chrm1. The experiment in a line: qRT-PCR of muscarinic receptor expression, murine PDAC cell lines. It counts as cell-based, mouse. Particulars: murine PDAC cell lines (Panc02 and K8282), compared to control. (Real-time PCR tracks product formation cycle by cycle.)
[5] abbreviates: vagotomized KC mice, bethanechol treatment.

Entries after “also recorded” stand apart in the source; their conditions may differ. Read-outs that look alike come from different tables or passages of the source.

With `CC(C[N+](C)(C)C)OC(N)=O` (stereo not shown) [bethanechol, 2-[(aminocarbonyl)oxy]-N,N,N-trimethyl-1-propanaminium], the M1R expression entry in the data set on KC mice (KC mice following vagotomy, bethanechol in drinking water) is recorded as “reduced”. For the same compound, the PanIN area result in the data set on KC mice (KC+VxPP mice, bethanechol 400 μg/ml in drinking water from 8 to 20 weeks, vs untreated KC+VxPP) was “significant reduction; also recorded: reduced”. Moreover, the “pancreatic tumor (PDAC) incidence” value is recorded as “reduced; also recorded: inhibits” in the data set with KC mice (KC+VxPP mice, vs untreated KC+VxPP) and “significant reduction; also recorded: significant decrease” in the data set with KC mice (KC+VxPP mice, vs untreated KC+VxPP, listed as Bethanechol). Also, the “pancreatic CD44 expression” value with KC mice (KC+VxPP mice) is listed as “significant decrease; also recorded: reduced”; in the data set on KC mice (KC+VxPP mice, listed as Bethanechol) it was “reduced”. For the same compound, the area of inflammation entry in the data set on KC mice (vagotomized KC mice, bethanechol 400 μg/ml, vs KC+VxPP control group) is given as “significant reduction”. Moreover, the “accelerated tumorigenesis / PanIN progression after vagotomy (KC phenotype)” value in the data set with KC mice (setting [5]) is given as “ameliorated; also recorded: suppresses; also recorded: restored the normal KC phenotype; also recorded: reduces”; in the data set with KC mice (vagotomized KC mice, bethanechol treatment, listed as Bethanechol) it was “abrogate; also recorded: suppressed”. The “expression of p-EGFR, p-PI3K and p-ERK1/2 (immunohistochemical staining)” value in the data set with KC mice (setting [5]) is “significantly suppressed”; in the data set with KPC mice (pancreata of KPC mice treated with bethanechol) it was “suppressed; also recorded: significantly downregulated”. Besides, the “systemic and splenic levels of TNFα, CD11b+ and F4/80+ pancreatic myeloid cells” value in the data set with KC mice (setting [5]) was “suppressed”. In addition, the “tumor-associated macrophages (TAM) increased by vagal denervation” value with KC mice (setting [5]) was “abolished”. Moreover, the “overall survival (in words)” value is listed as “extended significantly; also recorded: significantly extended” with KPC mice and “significantly extended; also recorded: prolongs” in the data set with KPC mice (listed as Bethanechol). Also, the “toxicity in treatment of xerostomia” value is reported as “without any severe (Grade 3) toxicity” in data set [1] (cancer patients, 25 mg twice daily for several months) and “without grade 3 toxicity or need for discontinuation” in data set [1] (oncology, doses up to 50 mg three times daily). In data set [1] (cancer patients, up to 50 mg three times daily and 25 mg 3 times a day), the “side effects in treatment of xerostomia” value is “did not identify any clinically significant side effects”. Also, the duration of action in data set [1] (human, in vivo) was 6 h. Further, in data set [1] (human, in vivo), the “interactions with gemcitabine or nab-paclitaxel” value is on record as “no reported interactions”. Further, the “toxicity of single doses” value in data set [1] (single doses up to 200 mg) is “only mild cholinergic toxicity”.

For `CC[C@@H]1C(=O)OC[C@@H]1Cc1cncn1C` [pilocarpine, (3S,4R)-3-ethyl-4-[(3-methylimidazol-4-yl)methyl]oxolan-2-one], the “proliferation (MTT assay)” value in data set [2] (72 hours, 0.5% FBS medium) was “suppressed”. Further, the “increase in proliferation due to muscarinic antagonists” value in data set [2] (agonist added to antagonist) was “blocked; also recorded: inhibited to some extent”. For the same compound, the Chrm1 expression entry in the data set on CHRM1 [3] and in the data set with Chrm1 [4] was “decreased; also recorded: lower” throughout.

The record behind these values is patent publication US11344534B2, “Cholinergic agonism for the treatment of pancreatic cancer” (priority 2017, dated 2022).
